Target: TRMT6/TRMT61A complex (Homo sapiens, UniProt Q96FX7+Q9UJA5)
Assay: screen for block of TRMT6/TRMT61A interaction in vitro; m1A by LC-MS/MS in treated PLC/PRF/[…] cells
Type: cell-based
Details: blocks subunit interaction (method not described); m1A read in cells treated at the proliferation IC50

Chain of TRMT6/TRMT61A complex (Q96FX7 2-289): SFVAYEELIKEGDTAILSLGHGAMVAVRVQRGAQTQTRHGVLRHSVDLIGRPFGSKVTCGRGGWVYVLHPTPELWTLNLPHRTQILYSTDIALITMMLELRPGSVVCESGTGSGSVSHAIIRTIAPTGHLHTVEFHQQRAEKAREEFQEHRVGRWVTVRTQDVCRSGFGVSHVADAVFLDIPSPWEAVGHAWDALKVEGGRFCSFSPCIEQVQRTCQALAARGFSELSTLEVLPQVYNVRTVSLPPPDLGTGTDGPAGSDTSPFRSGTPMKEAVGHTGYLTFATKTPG
Chain of TRMT6/TRMT61A complex (Q9UJA5 whole entry): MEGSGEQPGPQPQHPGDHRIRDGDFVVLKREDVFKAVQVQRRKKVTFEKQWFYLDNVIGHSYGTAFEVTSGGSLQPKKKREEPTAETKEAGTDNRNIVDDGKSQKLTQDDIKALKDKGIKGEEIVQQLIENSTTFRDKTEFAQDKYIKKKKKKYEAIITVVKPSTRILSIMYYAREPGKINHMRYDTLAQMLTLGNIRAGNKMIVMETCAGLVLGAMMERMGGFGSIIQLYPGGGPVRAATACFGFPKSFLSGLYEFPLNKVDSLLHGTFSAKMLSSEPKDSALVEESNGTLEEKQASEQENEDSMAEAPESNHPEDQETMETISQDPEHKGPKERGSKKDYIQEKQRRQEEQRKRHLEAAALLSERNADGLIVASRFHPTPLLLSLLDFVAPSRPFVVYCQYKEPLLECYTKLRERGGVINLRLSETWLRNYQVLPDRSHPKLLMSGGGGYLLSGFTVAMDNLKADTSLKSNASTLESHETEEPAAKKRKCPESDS

Structure (SMILES): CN(C)C(=S)SSC(=S)N(C)C [thiram]
- screen for block of TRMT6/TRMT61A interaction in vitro; m1A by LC-MS/MS in treat: thiram acts as an efficient inhibitor against TRMT6/TRMT61A complex

— paper PMC8563902, “N^1-methyladenosine methylation in tRNA drives liver tumourigenesis by regulating cholesterol metabolism” (Nature Communications, 2021)
